The species named for one data set is Gallus gallus. As to the kind of experiment: Antiangiogenic activity against bFGF-induced angiogenesis in chick embryo chorioallantoic membrane. Type of data set: functional, tissue-based.
In a further data set the test system is BMEC. Put plainly: Cytotoxicity against bovine microvascular endothelial cells. The class given is cell-based, Bos taurus. The following applies: cattle.

Active and inactive are the calls of the source. No cut-off for these calls is given here.

For the molecule `COc1cc(O)cc2c1C(=O)O[C@@H]2CCCCC[C@@H]1CCC[C@]2(CC[C@@H](C)O2)O1`, the outcome in the data set listed under Gallus gallus was Active. For the same molecule, the Activity result with BMEC is on record as “Non-toxic”.
With `COc1cc(O)cc2c1C(=O)O[C@@H]2CCCCCCCCCC1(O)CC[C@@H](C)O1` (stereo partly specified), the outcome in the data set filed under Gallus gallus was Active. The Activity entry in the data set on BMEC is “Non-toxic”.
In the same order, the values of `COc1cc(O)c(O)c2c1C(=O)O[C@@H]2CCCCCCCCCC1(O)CC[C@@H](C)O1` (stereo partly specified) are “Active” and “Non-toxic”.
